One assay concerns the target T1, β2 (Homo sapiens, UniProt P07550).
T1 construct: endogenous in cells; host or cells: H292 cells
Kind of assay: Adrenergic β2 mediated cAMP production in H292 cells (AlphaScreen). The following applies: Intrinsic Activity as a fraction relative to the maximum activity of formoterol. It counts as cell-based. How it is done:
H292 cells were grown in 225 cm2 flasks incubator at 37° C., 5% CO2 in RPMI medium containing, 10% (v/v) FBS (foetal bovine serum) and 2 mM L-glutamine.
Adherent H292 cells were removed from tissue culture flasks by treatment with Accutase™ cell detachment solution for 15 minutes. Flasks were incubated for 15 minutes in a humidified incubator at 37° C., 5% CO2. Detached cells were re-suspended in RPMI media (containing 10% (v/v) FBS and 2 mM L-glutamine) at 0.05×10^6 cells per mL. 5000 cells in 100 μL were added to each well of a tissue-culture-treated 96-well plate and the cells incubated overnight in a humidified incubator at 37° C., 5% CO2. The culture media was removed and cells were washed twice with 100 μL assay buffer and replaced with 50 μL assay buffer (HBSS solution containing 10 mM HEPES pH7.4 and 5 mM glucose). Cells were rested at room temperature for 20 minutes after which time 25 μL of rolipram (1.2 mM made up in assay buffer containing 2.4% (v/v) dimethylsulphoxide) was added. Cells were incubated with rolipram for 10 minutes after which time Compound A was added and the cells were incubated for 60 minutes at room temperature. The final rolipram concentration in the assay was 300 μM and final vehicle concentration was 1.6% (v/v) dimethylsulphoxide. The reaction was stopped by removing supernatants, washing once with 100 μL assay buffer and replacing with 50 μL lysis buffer. The cell monolayer was frozen at −80° C. for 30 minutes (or overnight).
The concentration of cAMP (cyclic adenosine monophosphate) in the cell lysate was determined using AlphaScreen™ methodology. […] The AlphaScreen™ signal was measured using an EnVision spectrophotometer (Perkin-Elmer Inc.) with the recommended manufacturer's settings. cAMP concentrations were determined by reference to a calibration curve determined in the same experiment using standard cAMP concentrations. […] Intrinsic Activity was expressed as a fraction relative to the maximum activity determined for formoterol in each experiment.
A general note: Changes in cAMP serve as a functional read-out for many G protein-coupled receptors.

The subject of another assay is guinea pig trachea. Kind of assay: Bronchodilator activity in the guinea pig isolated tracheal ring preparation. The following applies: 10 nM; methacholine 1 μM; 60 min; mean±s.e.mean. The method, then: Guinea pigs (300-500 g) were killed by cervical dislocation and the trachea was isolated. The trachea was cut into segments 2-3 cartilage rings in width and suspended in 10 ml organ baths in modified Krebs' solution (mM; NaCl, 90; NaHCO3, 45; KCl, 5; MgSO4.7H2O, 0.5; Na2HPO4.2H2O, 1; CaCl2, 2.25; glucose, 10; pH 7.4 gassed with 5% CO2, 95% O2 at 37° C.). The tracheal rings were attached to an isometric force transducer for the measurement of isometric tension. The tissues were washed and a force of 1 g was applied to each tissue. The rings were contracted with methacholine (1 μM). Once the contraction had reached a plateau, vehicle (0.01% DMSO in distilled H2O), indacaterol (10 nM), N-[2-(Diethylamino)ethyl]-N-(2-{[2-(4-hydroxy-2-oxo-2,3-dihydro-1,3-benzothiazol-7-yl)ethyl]amino}ethyl)-3-[2-(1-naphthyl)ethoxy]propanamide dihydrobromide (10 nM), N-Cyclohexyl-N^3-[2-(3-fluorophenyl)ethyl]-N-(2-{[2-(4-hydroxy-2-oxo-2,3-dihydro-1,3-benzothiazol-7-yl)ethyl]amino}ethyl)-(3-alaninamide di-D-mandelate salt (1 nM), (R)-3-(1-Phenyl-cycloheptanecarbonyloxy)-1-(pyridin-2-ylcarbamoylmethyl)-1-azonia-bicyclo[2.2.2]octane bromide (1 nM), a combination of (R)-3-(1-Phenyl-cycloheptanecarbonyloxy)-1-(pyridin-2-ylcarbamoylmethyl)-1-azonia-bicyclo[2.2.2]octane bromide (1 nM) and indacaterol (10 nM), a combination of N-[2-(Diethylamino)ethyl]-N-(2-{[2-(4-hydroxy-2-oxo-2,3-dihydro-1,3-benzothiazol-7-yl)ethyl]amino}ethyl)-3-[2-(1-naphthyl)ethoxy]propanamide dihydrobromide (10 nM) and (R)-3-(1-Phenyl-cycloheptanecarbonyloxy)-1-(pyridin-2-ylcarbamoylmethyl)-1-azonia-bicyclo[2.2.2]octane bromide (1 nM) and, or a combination of N-Cyclohexyl-N^3-[2-(3-fluorophenyl)ethyl]-N-(2-{[2-(4-hydroxy-2-oxo-2,3-dihydro-1,3-benzothiazol-7-yl)ethyl]amino}ethyl)-β-alaninamide di-D-mandelate salt (1 nM) and (R)-3-(1-Phenyl-cycloheptanecarbonyloxy)-1-(pyridin-2-ylcarbamoylmethyl)-1-azonia-bicyclo[2.2.2]octane bromide (1 nM) was added and the tissue left for 60 min. The tension was measured in each ring at 60 min following compound addition and was expressed as a % relaxation of the constriction to methacholine (1 μM) (mean±s.e.mean). Data were collected using the Chart 4 software (ADInstruments, Charlgrove, UK).

Counter-ions that a name gives are not always drawn.

T1 sequence (P07550 whole entry): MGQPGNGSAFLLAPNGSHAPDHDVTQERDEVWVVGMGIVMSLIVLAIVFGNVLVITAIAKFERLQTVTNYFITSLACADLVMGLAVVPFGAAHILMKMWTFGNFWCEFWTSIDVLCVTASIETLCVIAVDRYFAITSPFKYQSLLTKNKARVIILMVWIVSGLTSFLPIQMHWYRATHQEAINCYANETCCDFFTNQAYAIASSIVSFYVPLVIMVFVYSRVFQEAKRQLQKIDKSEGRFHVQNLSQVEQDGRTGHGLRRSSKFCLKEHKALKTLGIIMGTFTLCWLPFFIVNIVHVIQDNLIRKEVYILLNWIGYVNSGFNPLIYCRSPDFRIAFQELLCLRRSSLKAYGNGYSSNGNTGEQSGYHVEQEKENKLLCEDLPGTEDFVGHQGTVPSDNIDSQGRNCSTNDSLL

As for `CCN(CC)CCN(CCNCCc1ccc(O)c2[nH]c(=O)sc12)C(=O)CCOCCc1cccc(Cl)c1` [BA2, N-[2-(Diethylamino)ethyl]-N-(2-{[2-(4-hydroxy-2-oxo-2,3-dihydro-1,3-benzothiazol-7-yl)ethyl]amino}ethyl)-3-[2-(3-chlorophenyl)ethoxy]propanamide dihydrobromide], the “β2 Int Act” value on β2 is on record as 0.7. With `O=c1[nH]c2c(O)ccc([C@@H](O)CNCCSCCCNCCc3ccccc3Cl)c2s1` [BA3, 7-[(1R)-2-({2-[(3-{[2-(2-Chlorophenyl)ethyl]amino}propyl)thio]ethyl}amino)-1-hydroxyethyl]-4-hydroxy-1,3-benzothiazol-2(3H)-one dihydrobromide], the “β2 Int Act” value on β2 was determined as 0.8. In the case of `CCN(CC)CCN(CCNCCc1ccc(O)c2[nH]c(=O)sc12)C(=O)CCOCCc1cccc2ccccc12` [BA1, N-[2-(Diethylamino)ethyl]-N-(2-{[2-(4-hydroxy-2-oxo-2,3-dihydro-1,3-benzothiazol-7-yl)ethyl]amino}ethyl)-3-[2-(1-naphthyl)ethoxy]propanamide dihydrobromide], on β2, the “β2 Int Act” value was 0.8. For the same molecule, in the assay on guinea pig trachea, the “percentage relaxation of the constriction to methacholine” value worked out at 18±11.2%.

These data come from US20110190309A1, “PHARMACEUTICAL PRODUCT COMPRISING A […] RECEPTOR ANTAGONIST AND A Beta2-ADRENOCEPTOR AGONIST” (priority 2008, published 2011).
